Measurements taken from patent US20150038438A1, “ANTIBACTERIAL COMPOUNDS AND METHODS FOR USE” (PTC THERAPEUTICS, INC., priority 2011, published 2015).
Converted amounts (≈) assume the structure as drawn.

Tests used:
Experiment in all cases: Antibacterial activity, microbroth dilution method (MIC)
[1] = test system: Gram-positive Staphylococcus aureus (S. aureus) 29213; type: cell-based; settings: Staphylococcus aureus, Gram-positive S. aureus 29213
Procedure, shortened: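 Lowest concentration stopping macroscopically visible growth under test conditions, by broth microdilution, defines the MIC (μg/mL).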

[2] = test system: super sensitive Gram-negative Escherichia coli (E. coli) BAS849; type: cell-based; settings: Escherichia coli; super sensitive Gram-negative E. coli BAS849; microbroth dilution; read-out: MIC, E. coli BAS849
Procedure, shortened: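 Read-out: visual absence of growth. The lowest concentration meeting this gives the MIC, expressed in μg/mL, with microbroth dilution as the method.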

[3] = test system: control Gram-negative E. coli 25922 strain; type: cell-based, Escherichia coli; settings: Escherichia coli
Procedure, shortened: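 In a microbroth dilution test, the minimum inhibitory concentration was defined as the lowest compound level preventing growth seen by eye, and was given in μg/mL.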

| SMILES | MIC [1] [µg/mL] | MIC [2] [µg/mL] | MIC [3] [µg/mL] |
| --- | --- | --- | --- |
| CN(C)C1CCN(c2ccc3c(c2)CCCc2c-3[nH]c(=O)c(C(=O)O)c2O)CC1.Cl [Cpd 116, 9-(4-(dimethylamino)piperidin-1-yl)-4-hydroxy-2-oxo-2,5,6,7-tetrahydro-1H-benzo[6,7]cyclohepta[1,2-b]pyridine-3-carboxylic acid hydrochloride] | 12.5 to 150 | 3.5 to 12.5 | 12.5 to 150 |
| CCCNCc1cc2cc3c(cc2n1C)OCCc1c-3[nH]c(=O)c(C(=O)O)c1O.Cl [Cpd 169, 4-hydroxy-9-methyl-2-oxo-10-((propylamino)methyl)-2,5,6,9-tetrahydro-1H-pyrido[2′,3′:4,5]oxepino[3,2-f]indole-3-carboxylic acid hydrochloride] | 3.5 to 12.5 | < 1 | < 1 |
| CC1Cc2cc3c(cc2-c2[nH]c(=O)c(C(=O)O)c(O)c21)OCO3 (stereo not drawn) [Cpd 106, 4-hydroxy-5-methyl-2-oxo-1,2,5,6-tetrahydro-[1,3]dioxolo[4′,5′:4,5]benzo[1,2-h]quinoline-3-carboxylic acid] | 12.5 to 150 (≈ 39.6 to 476 µM) | 1 to 3.5 (≈ 3.17 to 11.1 µM) | 12.5 to 150 (≈ 39.6 to 476 µM) |
| CC(C)NCc1cc2cc3c(cc2n1C)OCCc1c-3[nH]c(=O)c(C(=O)O)c1O.Cl [Cpd 90, 4-hydroxy-10-((isopropylamino)methyl)-9-methyl-2-oxo-2,5,6,9-tetrahydro-1H-pyrido[2′,3′:4,5]oxepino[3,2-f]indole-3-carboxylic acid hydrochloride] | 12.5 to 150 | < 1 | < 1 |
| CN(C)C1CCCN(c2ccc3c(c2)CCCc2c-3[nH]c(=O)c(C(=O)O)c2O)C1.Cl (stereo not drawn) [Cpd 117, 9-(3-(dimethylamino)piperidin-1-yl)-4-hydroxy-2-oxo-2,5,6,7-tetrahydro-1H-benzo[6,7]cyclohepta[1,2-b]pyridine-3-carboxylic acid hydrochloride] | 12.5 to 150 | 3.5 to 12.5 | 12.5 to 150 |
| CN1CCN(Cc2cc3cc4c(cc3n2C)CCCc2c-4[nH]c(=O)c(C(=O)O)c2O)CC1.Cl.Cl [Cpd 42, 4-hydroxy-9-methyl-10-((4-methylpiperazin-1-yl)methyl)-2-oxo-1,2,5,6,7,9-hexahydropyrido[3′,2′:6,7]cyclohepta[1,2-f]indole-3-carboxylic acid dihydrochloride] | 3.5 to 12.5 | < 1 | 3.5 to 12.5 |
| Cl.Cn1c(CNC2CCC2)cc2cc3c(cc21)CCCc1c-3[nH]c(=O)c(C(=O)O)c1O [Cpd 23, 10-((cyclobutylamino)methyl)-4-hydroxy-9-methyl-2-oxo-1,2,5,6,7,9-hexahydropyrido[3′,2′:6,7]cyclohepta[1,2-f]indole-3-carboxylic acid hydrochloride] | 3.5 to 12.5 | < 1 | < 1 |
| CCC(C)NCc1cc2cc3c(cc2n1C)CCCc1c-3[nH]c(=O)c(C(=O)O)c1O.Cl (stereo not drawn) [Cpd 146, 10-((sec-butylamino)methyl)-4-hydroxy-9-methyl-2-oxo-1,2,5,6,7,9-hexahydropyrido[3′,2′:6,7]cyclohepta[1,2-f]indole-3-carboxylic acid hydrochloride] | 3.5 to 12.5 | < 1 | < 1 |
| CC(C)NCc1cc2cc3c(cc2n1C)NCCCc1c-3[nH]c(=O)c(C(=O)O)c1O.Cl [Cpd 105, 4-hydroxy-11-((isopropylamino)methyl)-10-methyl-2-oxo-2,5,6,7,8,10-hexahydro-1H-pyrido[2′,3′:4,5]azocino[3,2-f]indole-3-carboxylic acid hydrochloride] | 12.5 to 150 | 1 to 3.5 | 3.5 to 12.5 |
| CC1CC1CNCc1cc2cc3c(cc2n1C)CCCc1c-3[nH]c(=O)c(C(=O)O)c1O.Cl (stereo not drawn) [Cpd 38, 4-hydroxy-9-methyl-10-((((2-methylcyclopropyl)methyl)amino)methyl)-2-oxo-1,2,5,6,7,9-hexahydropyrido[3′,2′:6,7]cyclohepta[1,2-f]indole-3-carboxylic acid hydrochloride] | 3.5 to 12.5 | < 1 | 1 to 3.5 |
